Columns and labels:
[1] = Blood brain barrier (BBB) permeability analysis (PAMPA); format: in vitro ADME
Description: Based on J Med Chem. 2001 Mar. 15; 44 (6):923-30., an artificial blood brain barrier (BBB) was produced by a parallel artificial membrane permeability assay (PAMPA), and the permeability of the drug was assessed.

[2] = biological target: hemoglobin (Hb) (Homo sapiens, UniProt P68871+P69905); assay: Hydrogen peroxide scavenging ability with hemoglobin (Amplex Red H2O2 assay); format: biochemical; settings: 10 μM H2O2, 80 μg/ml hemoglobin, 37° C. about 30 minutes
Sequence of hemoglobin (Hb) (P69905 2-142 limits assumed): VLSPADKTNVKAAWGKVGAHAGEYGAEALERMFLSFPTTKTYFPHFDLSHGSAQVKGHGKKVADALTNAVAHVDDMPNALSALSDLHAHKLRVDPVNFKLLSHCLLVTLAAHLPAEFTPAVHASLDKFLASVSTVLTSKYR
Sequence of hemoglobin (Hb) (P68871 2-147 limits assumed): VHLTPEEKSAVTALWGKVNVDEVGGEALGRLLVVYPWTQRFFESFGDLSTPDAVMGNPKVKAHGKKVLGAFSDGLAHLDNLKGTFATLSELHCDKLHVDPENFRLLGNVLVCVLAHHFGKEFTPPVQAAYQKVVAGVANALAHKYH
Description: Amplex Red is a means which turns into a fluorescent substance called resorufin when horse radish peroxidase (HRP) and H2O2 exist together and allows measurement of changes in H2O2, that is, H2O2 assay. […] The experiment was performed by adding hemoglobin instead of HRP to the H2O2 assay by Amplex Red (FIG. 1). The final concentration of each substance was 10 μM of H2O2 and 80 μg/ml of hemoglobin, and the aminoaromatic compound of the present invention was treated by concentration. After the reaction at 37° C. for about 30 minutes as such, fluorescence (excitation: 540 nm, emission: 580 nm) was measured by a microplate reader. At this time, it can be said that fluorescence is proportional to the amount of H2O2. Normalization was performed for each concentration based on a fluorescence value without a drug, and a value at which the fluorescence value was 50%, that is, a half maximal effective concentration (EC50) was determined by a program through statistical processing. The results are shown in the following Table 2, and AAD-2004 was used as a control group.

[3] = tested on: APP/PS1 mouse; assay: Passive avoidance test (PAT) II; format: in vivo
Description: (§1) On the first day of PAT, as an acquisition session, the mouse was allowed to stay in a bright room, and after a certain time, a dark room was opened and a time for the mouse to enter the dark room was measured. When the mouse entered the dark room, an electrical shock (0.5 mA, 2 sec) was given by a foothold. On the second day, as a retrieval session, the mouse was placed in a bright room, and a time for the mouse to enter a dark room was measured. At this time, the door of the dark room was opened first.
3 mg/kg/day (3 mpk) and 10 mg/kg/day (10 mpk) of the aminoaromatic compound of the present invention, KDS12025 (Example 21) was intraperitoneally injected into the APP/PS1 mouse which is used as an Alzheimer's animal model for one week, and the passive avoidance test was performed in the same manner as in Experimental Example 3. The results are illustrated in FIG. 6.

[4] = tested on: APP/PS1 mouse hippocampus astrocytes (GFAP); assay: Immunohistochemistry (IHC) II of brain tissue; format: in vivo
Description: (§2) The brain of the Alzheimer's animal model of Experimental Example 3 was fixed with formaldehyde, and sliced into a small thickness. The amount of cells or specific protein in the sliced brain was measured with an image by histochemical staining. In the present experimental example, an antibody labeling an astrocyte was used to measure a change in astrocytes related to dementia. The results are illustrated in FIG. 5. That is, in the present experimental example, the hippocampus of the brain was histologically stained and a change in astrocytes around dementia substance amyloid beta was observed. Glial fibrillary acidic protein (GFAP) refers to astrocytes staining, 4′,6-diamidino-2-phenylindole (DAPI) marked cell nuclei and amyloid beta substance.
The Alzheimer's animal model of Experimental Example 5 was used to perform histochemical staining of the brain tissue in the same manner as in Experimental Example 4, and the results are shown in FIG. 7.

[5] = tested on: APP/PS1+GiD Alzheimer's model mouse (APP+DTR); assay: Passive avoidance test (PAT) in APP/PS1+GiD mouse; format: in vivo
Description: In the present experiment, APP/PS1+GiD was produced by injecting AAV-GFAP104-DTR-GFP virus into the hippocampus of the APP/PS1 mouse, and hereinafter, is referred to as “APP+DTR”. In addition, the product obtained by injecting AAV-GFAP104-GFP virus into the hippocampus of the APP/PS1 mouse was referred to as “APP+GFP”. In addition, APP+DTR to which the aminoaromatic compound of the present invention, KDS12025 (Example 21) was administered was referred to as “APP+DTR+KDS12025”. In addition, as the WT mouse, APP/PS1 and littermate were used, and the product obtained by injecting AAV-GFAP104-GFP virus into the hippocampus of the WT mouse was referred to as “WT+GFP” and the product obtained by injecting AAV-GFAP104-DTR-GFP virus into the hippocampus of the WT mouse was referred to as “WT+DTR”.
In addition, as a result of PAT, the normal mouse (WT+GFP) remembered the dark room where it was given an electrical stimulation well and took a long time to enter the dark room.

[6] = tested on: WT mouse (C57BL/6 mouse); assay: Single toxicity assessment (lethal dose 50, LD50); format: in vivo
Description: The aminoaromatic compound of the present invention, KDS12008 (Example 1), KDS12017 (Example 16), or KDS12025 (Example 21) was intraperitoneally injected at a single dose of 100, 300, and 1000 mg/kg, respectively, into a WT mouse at about 8 weeks of age (C57BL/6 mouse), and it was assessed whether the animal was dead.

[7] = tested on: APP/PS1+GiD Alzheimer's model mouse (APP+DTR); assay: Novel place recognition experiment; format: in vivo; settings: 3 mg/kg/day i.p.
Description: The cognitive function related to hippocampus was assessed by a novel place recognition experiment to confirm the cognitive impairment and recovery. The same objects were put for a certain period of time for interaction, and after one hour, the position of only one object was changed. When having a normal cognitive function, a past memory is maintained to grow interest in a new object, but when having cognitive impairment, a new place is not determined. At this time, as an animal model, an APP/PS1+GiD Alzheimer's mode mouse which is a more closely developed model mouse to the phenomenon shown in the Alzheimer's dementia patient was used. The APP/PS1+GiD Alzheimer's model mouse was produced referring to Nature Neuroscience 23, 1555-1566 (2020).
In the present experiment, APP/PS1+GiD was produced by injecting AAV-GFAP104-DTR-GFP virus into the hippocampus of the APP/PS1 mouse, and hereinafter, is referred to as “APP+DTR”. In addition, the product obtained by injecting AAV-GFAP104-GFP virus into the hippocampus of the APP/PS1 mouse was referred to as “APP+GFP”. In addition, APP+DTR to which the aminoaromatic compound of the present invention, KDS12025 (Example 21) was administered was referred to as “APP+DTR+KDS12025”. […]

[8] = tested on: APP/PS1 mouse; assay: Passive avoidance test (PAT) I; format: in vivo; settings: 3 mg/kg/day IP for 16 days
Description: A passive avoidance test is an experiment to check the memory of animals, in which a weak electric stimulation was given in a dark room and it was assessed whether the animal remembered the electrical stimulation.
Since mice preferred a dark room, they have a tendency to move quickly to a dark room when they are in a bright room. […] A time to move from a bright room to a dark room (latency to dark room, sec) was measured, thereby measuring memory of a combination of the electrical stimulation and the dark room. An APP/PS1 mouse which is used as an Alzheimer's animal model was used to perform the passive avoidance test (FIG. 4). A wild type (WT) mouse was used as a control group.
as §1
The APP/PS1 dementia mouse was intraperitoneally injected with the aminoaromatic compound of the present invention (KDS12008 (Example 1), KDS12017 (Example 16), or KDS12025 (Example 21)) (KDS12008 (Example 1) 30 mg/kg/day (30 mpk); KDS12017 (Example 16) 30 mg/kg/day (30 mpk); KDS12025 (Example 21) 3 mg/kg/day (3 mpk)) for 16 days (intraperitoneal injection, IP).

[9] = tested on: APP/PS1 mouse hippocampus cells; assay: Electrophysiology experiment (tonic GABA); format: in vivo; settings: 3 mg/kg/day or 10 mg/kg/day
Description: The Alzheimer's animal model of Experimental Example 5 was used to confirm the influence of astrocytes and the mechanism causing memory impairment in dementia through an electrophysiology experiment.
Therefore, in the present experimental example, each of the APP/PS1 mouse as the Alzheimer's animal model, the APP/PS1 mouse treated with 3 mg/kg/day or 10 mg/kg/day, respectively, of the aminoaromatic compound of the present invention, KDS12025 (Example 21), and a healthy normal mouse (wild type, WT) was anesthetized, and brain tissues were obtained therefrom to measure an electrical signal of living hippocampus cells. Thus, the tonic GABA which inhibits neurotransmission in a brain cell was measured. The results are illustrated in FIG. 8.

[10] = tested on: APP/PS1 mouse hippocampus astrocytes (GFAP); assay: Immunohistochemistry (IHC) I of brain tissue, GFAP; format: in vivo; settings: 3 mg/kg/day IP for 16 days
Description: as §2

CNc1ccc(NCCc2ccccc2OC)cc1 [Example 21]
Papp at 50 μM [1]: 67.4 ×10⁻⁶ cm/s
EC50 [2]: 60 nM
memory in passive avoidance test ([3]; 3 mg/kg/day IP for one week): maintained its memory similarly to the healthy normal mouse
memory in passive avoidance test ([3]; 10 mg/kg/day IP for one week): maintained its memory similarly to the healthy normal mouse
astrocytes (GFAP staining) in hippocampus ([4]; 3 mg/kg/day IP for one week): astrocytes returned to a healthy normal level
astrocytes (GFAP staining) in hippocampus ([4]; 10 mg/kg/day IP for one week): astrocytes returned to a healthy normal level
memory in passive avoidance test [5]: recovered memory
animals died ([6]; C57BL/6, mouse, in vivo, ip, 300 mg/kg): about 50%
toxicity (death of animals) ([6]; mouse, in vivo, ip, 1000 mg/kg): showed toxicity
lethal toxicity ([6]; single dose 100 mg/kg IP, C57BL/6 mouse): lethal toxicity was not shown
cognitive function (novel place recognition) [7]: recovered cognitive function
latency to dark room (impaired memory) [8]: significantly recovered
tonic GABA [9]: decreased tonic GABA
GFAP (astrocytes) in hippocampus [10]: decreased GFAP

Reference: patent US20230406812A1, “NOVEL AMINOAROMATIC COMPOUND OR PHARMACEUTICALLY ACCEPTABLE SALT THEREOF, AND PHARMACEUTICAL COMPOSITION FOR PREVENTING OR TREATING NEURODEGENERATIVE DISEASES COMPRISING SAME AS ACTIVE INGREDIENT” (INSTITUTE FOR BASIC SCIENCE, priority 2020, published 2023)
